In experiment [1] the test system is blood vessels of the skin, C57BL/6 mouse, 20 Gy on the thorax. The experiment can be described thus: Radiation-induced in vivo vascular injury of skin (Example 2). To be noted: compared to untreated group (IR). As for the experimental part:
Tissue from a mouse was fixed in 10% neutral formalin for one day, and paraffin sections were prepared. The paraffin sections were then reacted for 5 minutes in each of xylene, and 95%, 90%, and 70% ethanol solutions in that order to deparaffinize the paraffin around the tissue. For antigen activation, the tissue was immersed in 0.1 M citrate (pH 6.0) and brought to a boil for 30 minutes, followed by reacting with 3% hydrogen peroxide for 15 minutes. Meanwhile, the tissue was then reacted in phosphate based saline buffer (PBS, 0.1% triton x-100 included) including CD31 (abcam, 1:100 dilution) at 4° C. for 16 hours. After washing with PBS, secondary antibodies having biotin conjugated were diluted at 1:200 and incubated at room temperature for 30 minutes. Avidin biotin complex (ABC) was applied and incubated at room temperature for 30 minutes, and 3,3′-DAB(3,3′-diaminobenzidine) was added for color detection. Hematoxylin was used for counterstaining. The tissue was then dipped in 50%, 70%, 90%, and 95% ethanol, and xylene in that order, and a drop of a mounting solution was applied thereto. The tissue was covered with a cover slide and observed with a microscope (Carl Zeiss Vision).
Skin was extracted from the mouse, and vascular changes inside the skin were observed. […]

In experiment [2] the test system is pulmonary artery endothelium, C57BL/6 mouse, 16 Gy on the lung. As to the kind of experiment: Radiation-induced pulmonary fibrosis in mouse, trichrome staining of collagen (Example 5). The conditions noted are these: 150 mg/kg i.p. 1 hour before 16 Gy irradiation of the lung; compared to IR; **: P<0.01. In kind it is in vivo. As for the experimental part:
(§1) Tissue from a mouse was fixed in 10% neutral formalin for one day, and paraffin sections were prepared. The paraffin sections were then reacted for 5 minutes in each of xylene, and 95%, 90%, and 70% ethanol solutions in that order to deparaffinize the paraffin around the tissue for staining. For antigen activation, the tissue was soaked in a 0.1 M citric acid solution (pH 6.0) and boiled.
The tissue was then reacted in Bouin's solution for 1 minute, Weigert's hematoxylin for 10 minutes, phosphotunstic/phosphomolydic acid for 10 minutes, aniline blue for 5 minutes, and 1% acetate for 1 minute in that order. After dehydration, the tissue was sealed with a cover glass, and observed with a confocal microscope.
To observe whether the symptoms of pulmonary fibrosis induced after radiotherapy include pulmonary fibrosis of vascular endothelial cells, a C57BL/6 mouse was exposed to 16 Gy radiation on the lung. The lung was extracted from the mouse, and collagen, a protein appearing on the cross-section of aorta during the fibrosis of pulmonary artery endothelial cell, was detected by trichrome staining. The group treated with 2-methoxyestradiol was intraperitoneally injected in an amount of 150 mg/kg 1 hour before irradiation. […]

Experiment [3] relates to skin tissue, C57BL/6 mouse, 20 Gy on the thorax. The experiment can be described thus: Radiation-induced in vivo skin damage, infiltration of inflammatory cells (Example 3). The conditions noted are these: 2 weeks after irradiation, compared to IR. As for the experimental part: (§2) Tissue from a mouse was fixed in 10% neutral formalin for one day, and paraffin sections were prepared. The paraffin sections were then reacted for 5 minutes in each of xylene, and 95%, 90%, and 70% ethanol solutions in that order to deparaffinize the paraffin around the tissue. The tissue was then put into hematoxylin for 1 minute to stain the nucleus and washed with running water for 10 minutes, followed by dipping in eosin for 30 seconds to stain the cytoplasm. The tissue was then dipped in 50%, 70%, 90%, and 95% ethanol, and xylene in that order, and a drop of a mounting solution was applied thereto. The tissue was covered with a cover slide and observed with a microscope (Carl Zeiss Vision).
To observe whether inflammatory responses and fibrosis of skin occur during tissue damage induced after radiotherapy, a C57BL/6 mouse was exposed to 20 Gy radiation on the thorax in a size of 7 mm. Skin was extracted from the mouse, and infiltration of inflammatory cells in the skin tissue was observed. The group pre-treated with 2-methoxyestradiol (IR+pre-treatment2Me) received an intraperitoneal injection in an amount of 60 mg/kg 1 hour before the irradiation, and that post-treated with 2-methoxyestradiol (IR+post-treatment2Me) received an intraperitoneal injection in an amount of 60 mg/kg 24 hours after the irradiation.

Experiment [4] concerns pulmonary artery endothelium, mouse model with lung cancer (mutated p53 and ras), 16 Gy. As to the kind of experiment: Fibrosis of vascular endothelium after irradiation in mouse model with lung cancer (Example 7). Type of experiment: in vivo. To be noted: 150 mg/kg i.p. 1 hour before 16 Gy irradiation, compared to IR. As for the experimental part:
as §2, with “solutions in order to” for “solutions in that order to”, “around the tissue for staining. The tissue” for “around the tissue. The tissue”
as §1
The tissue was then reacted in Bouin's solution for 1 minute, Weigert's hematoxylin for 10 minutes, phosphotunstic/phosphomolydic acid for 10 minutes, aniline blue for 5 minutes, and 1% acetate for 1 minute in that order. […]

The subject of experiment [5] is lung of a mouse model, 90 Gy irradiation. The experiment can be described thus: Radiation-induced lung tissue damage, H&E staining (Example 1). In kind it is in vivo. To be noted: 60 mg/kg i.p. 1 hour before 90 Gy irradiation; 2 weeks after irradiation; compared to untreated group (IR). As for the experimental part:
as §2
A mouse was exposed to 90 Gy radiation on the thorax in a size of 3 mm. Lung tissue from the mouse model was fixed in 10% neutral formalin, and paraffin sections were prepared. Using the hematoxylin and eosin staining method, inflammatory reactions and fibrosis of the tissue were observed. The cell nuclei were stained in blue and the cytoplasm was stained in pink. One hour before the irradiation, the mouse model received an intraperitoneal injection of 60 mg/kg 2-methoxyestradiol. Two weeks after the irradiation, inflammatory reactions and fibrosis were observed using H&E staining at the site of tissue damage.

The subject of experiment [6] is Human pulmonary artery endothelial cells (HPAEC). As to the kind of experiment: Immunofluorescence staining of irradiated HPAECs (Example 4). In kind it is cell-based. The conditions noted are these: 10 ng/mL, 12 hours before 10 Gy radiation. As for the experimental part: (§3) Human pulmonary artery endothelial cells (HPAEC) bought from Promocell were cultured in a culture chamber at a temperature of 37° C. under a 5% CO2 condition using a medium including various growth factors necessary for growth of the vascular endothelial cell.
(§4) HPAECs were plated in 3.5 cm, 6 cm, and 10 cm culture dishes and cultured in a CO2 incubator at 37° C. so that the cells were 70% to 80% confluent. 2-Methoxyestradiol was selectively pre-treated according to the test groups. 10 Gy gamma rays (^137Cs) (Atomic Energy of Canada, LTd., Canada) were radiated at a dose of 3.81 Gy/min.
HPAECs were cultured on the cover slide, selectively pre-treated with 2-methoxyestradiolin according to test groups, and irradiated. HPAECs were then fixed in 10% neutral formalin for one day, and washed with phosphate buffered saline (PBS) before staining. After blocking with 2% bovine serum albumin (dissolved inPBS) before the first antibody reaction, VE-cadherin, hypoxia-inducible factor 1-alpha (HIF-1α), SMAD, p-SMAD2/3, and α-SMA antibodies, diluted at 1:100, were reacted at 4° C. for 16 hours. After washing with PBS, the second antibodies having fluorescent stains attached were diluted at 1:500 and reacted at 25° C. for 1 hour. The nuclei were stained with a fluorescent stain 4′,6-diamidino-2-phenylindole (DAPI). After washing with PBS, a drop of glycerol was applied to attach the stained cells to the glass slide.
Human pulmonary artery endothelial cells which received 10 Gy radiation were fixed in 10% neutral formalin, and reacted with phalloidin, CA-9, and VE-cadherin antibodies. Then, fluorescent-labeled secondary immunoglobulins were used to stain CA9, phalloidin, and VE-cadherin in red, green, and white, respectively. The cell nuclei were stained in blue using DAPI. The group received 10 Gy radiation 12 hours after treating HPAECs with 10 ng/mL 2-methoxyestradiol.

Experiment [7] relates to p-SMAD, Smad 2/3, α-SMA in HPAECs. The experiment can be described thus: Western blot of fibrosis-related proteins in irradiated HPAECs (Example 6). Type of experiment: cell-based, human. The conditions noted are these: 12 hours before 10 Gy radiation. As for the experimental part:
as §3, §4
After the cultured cells were irradiated, specimens in which the cells were dissolved in a solution of 150 mM sodium chloride, 40 mM Tris-Cl (pH 8.0), 0.1% NP-40 were prepared to observe intracellular proteins. Sodium dodecyl sulfate polyacrylamide gel electrophoresis (SDS-PAGE) was performed on the specimens, followed by Western blot analysis. The proteins separated by electrophoresis were transferred to a nitrocellulose membrane, and the amount of protein expression was analyzed using the immunoblotting method.
In order to observe changes in the expression amount of the proteins related to HPAEC pulmonary fibrosis according to the concentrations of 2-methoxyestradiol (0.5 μM and 1 μM), the cultured HPAECs were pre-treated with 0.5 μM or 1 μM 2-methoxyestradiol and received 10 Gy radiation 12 hours later. Western blot analysis was then performed using p-SMAD, Smad 2/3, and alpha smooth muscle actin (α-SMA) antibodies. To measure a quantitative amount of the protein, Western blot was performed using β-actin antibodies.
Background: A western blot detects proteins with antibodies after separation by electrophoresis.

Setting [8] is: post-treated: 60 mg/kg i.p. 24 hours after 20 Gy irradiation.
Where [9] appears, read: pre-treated: 60 mg/kg i.p. 1 hour before 20 Gy irradiation.
Where [10] appears, read: 1 μM, decrease in particular at 1 μM.

Molecules are shown by their SMILES.

With `COc1cc2c(cc1O)CC[C@@H]1[C@@H]2CC[C@]2(C)[C@@H](O)CC[C@@H]12` [2-methoxyestradiol], the skin vascular injury entry in experiment [1] (setting [8]) is recorded as “significant reduction”. In addition, the skin vascular injury entry in experiment [1] (setting [9]) is given as “significant reduction”. In experiment [2], the “collagen stained in blue in the aortic wall, trichrome staining” value is “significant decrease”. In experiment [3] (setting [8]), the “number of infiltrated inflammatory cells inside the skin tissue” value is listed as “significantly reduced”. Also, in experiment [3] (setting [9]), the “number of infiltrated inflammatory cells inside the skin tissue” value is “significantly reduced”. The “collagen stained in blue around the vascular endothelium, trichrome staining” value in experiment [4] was “significant decrease”. In experiment [5], the “cell infiltration (inflammatory cells) in lung tissue, H&E staining” value is “significantly reduced” and the “fibrosis around blood vessels in lung tissue, H&E staining” value is on record as “significantly reduced”. In experiment [6], the “CA-9 staining, immunofluorescence” value is given as “significant decrease”; the “VE-cadherin (white around the cell membrane), immunofluorescence” value is on record as “significant increase”; the “phalloidin staining, immunofluorescence” value is reported as “significant decrease”. In experiment [7] (0.5 μM), the “Smad 2/3 expression, Western blot” value was “relative decrease”; the “p-SMAD expression, Western blot” value was “relative decrease”; the “α-SMA expression, Western blot” value was “relative decrease”. Moreover, in experiment [7] (setting [10]), the “Smad 2/3 expression, Western blot” value is “relative decrease”; the “p-SMAD expression, Western blot” value is given as “relative decrease”; the “α-SMA expression, Western blot” value is given as “relative decrease”.
